Series [1] has as its system cytoplasmatic membrane integrity. Format: cell-based. The procedure:
(§1) However, in order to verify further the robustness of the developed methods, these algorithms were tested on FOV-averaged data generated from a real toxicity assay. The cell-based experiment involved the influence of several drugs and the applications of two fluorescent markers during a 5-hour time course. The general background for such an experimental study is outlined in the article by O'Brien et al.
The first example analyzed the cytoplasmatic membrane integrity, as indicated by the TOTO-3 marker. TOTO-3 stains cell nuclei only after cell plasma membrane disruption. The response1(t) generated by disruption to the membrane is therefore a curve representing the increase of cell nuclei intensity in TOTO-3 channel. This intensity was measured by a microscopy HTS system. However, the exact moment when a particular membrane became disrupted was unpredictable.
The analysis therefore used stochastic fitting involving a single time parameter (the width of the box-shaped distribution of starting times of the response).
FIG. 11 represents the raw TOTO-3 response. The TOTO-3 response was taken for two values of drug concentration, denoted “high” and “low”.
Data fitting was performed using a response1(t) function having an exponential rising shape. τ was equal to 15 minutes, A=0.5 and B=1.48. The starting time distribution was box shaped with tmin=0 and widtht−fitted.

Series [2] concerns mitochondrial membrane potential. It counts as cell-based. As for the experimental part: Various examples describing various real-life responses obtained using the mitochondrial marker TMRM will now be given. In actual images of cells stained with TMRM, the level of fluorescence intensity is related to the mitochondrial membrane potential, loss of which can be an indicator of cytotoxicity.
as §1
The second example analyzed a mitochondrial marker (TMRM) response. […] It was assumed that all cells started reacting immediately after drug addition. The reaction of a mitochondrial potential to a perturbation (i.e. a drug) is considered to be potentially very diverse.
The expression defined in Equation 16 above is very flexible, and uses as a fitting parameter the single time scale (“τ”), amplitude (“range”) and another parameter (“α”) for controlling response nonlinearity.
The TMRM response was taken for two values of drug concentration, denoted “high” and “low”.
Data fitting was performed using the technique discussed in relation to Equation 16, above. […]

For `COc1ccc(CCN2CCC(Nc3nc4ccccc4n3Cc3ccc(F)cc3)CC2)cc1` [astemizole], the “TOTO-3 response speed (characteristic time) relative to controls” value in series [1] is listed as “responding faster than controls”. For the compound `O=C1CN(/N=C/c2ccc(-c3ccc([N+](=O)[O-])cc3)o2)C(O)=N1` [dantrolene], the “effect on mitochondrial function (TMRM response)” value in series [2] is given as “no effect”. On to `Cc1oncc1C(=O)Nc1ccc(C(F)(F)F)cc1` [leflunomide], for which the “effect on mitochondrial function (TMRM response)” value in series [2] was “no effect”. As to `CC[C@H](C)C(=O)O[C@H]1C[C@@H](C)C=C2C=C[C@H](C)[C@H](CC[C@@H]3C[C@@H](O)CC(=O)O3)[C@H]21` [lovastatin], the “TOTO-3 response speed (characteristic time) relative to controls” value in series [1] is “responding faster than controls”.

Regarding `CC/C(=C(\c1ccccc1)c1ccc(OCCN(C)C)cc1)c1ccccc1` [tamoxifen], the “TOTO-3 response speed (characteristic time) relative to controls” value in series [1] is “responding faster than controls”.

The values above are taken from patent publication US9047503B2, “System and method for automated biological cell assay data analysis” (GE HEALTHCARE UK LIMITED, priority 2010, dated 2015).
